Data published in patent US11608319B2, “Beta-amino acid derivative, kinase inhibitor and pharmaceutical composition containing the same, and method for performing an in vivo related application that benefits from the inhibition of a kinase” (Industrial Technology Research Institute, priority 2019, dated 2023).
Counter-ions that a name gives are not always drawn. Like-named read-outs stand apart in the source and are kept apart here.

What was measured:
rabbit eyes = test: Safety margin assay (eye irritation, OECD/OCDE 405)
ROCK1 = ROCK1 (Homo sapiens (Human), UniProt Q13464); test: biochemical
Chain of ROCK1 (Q13464 whole entry, species assumed): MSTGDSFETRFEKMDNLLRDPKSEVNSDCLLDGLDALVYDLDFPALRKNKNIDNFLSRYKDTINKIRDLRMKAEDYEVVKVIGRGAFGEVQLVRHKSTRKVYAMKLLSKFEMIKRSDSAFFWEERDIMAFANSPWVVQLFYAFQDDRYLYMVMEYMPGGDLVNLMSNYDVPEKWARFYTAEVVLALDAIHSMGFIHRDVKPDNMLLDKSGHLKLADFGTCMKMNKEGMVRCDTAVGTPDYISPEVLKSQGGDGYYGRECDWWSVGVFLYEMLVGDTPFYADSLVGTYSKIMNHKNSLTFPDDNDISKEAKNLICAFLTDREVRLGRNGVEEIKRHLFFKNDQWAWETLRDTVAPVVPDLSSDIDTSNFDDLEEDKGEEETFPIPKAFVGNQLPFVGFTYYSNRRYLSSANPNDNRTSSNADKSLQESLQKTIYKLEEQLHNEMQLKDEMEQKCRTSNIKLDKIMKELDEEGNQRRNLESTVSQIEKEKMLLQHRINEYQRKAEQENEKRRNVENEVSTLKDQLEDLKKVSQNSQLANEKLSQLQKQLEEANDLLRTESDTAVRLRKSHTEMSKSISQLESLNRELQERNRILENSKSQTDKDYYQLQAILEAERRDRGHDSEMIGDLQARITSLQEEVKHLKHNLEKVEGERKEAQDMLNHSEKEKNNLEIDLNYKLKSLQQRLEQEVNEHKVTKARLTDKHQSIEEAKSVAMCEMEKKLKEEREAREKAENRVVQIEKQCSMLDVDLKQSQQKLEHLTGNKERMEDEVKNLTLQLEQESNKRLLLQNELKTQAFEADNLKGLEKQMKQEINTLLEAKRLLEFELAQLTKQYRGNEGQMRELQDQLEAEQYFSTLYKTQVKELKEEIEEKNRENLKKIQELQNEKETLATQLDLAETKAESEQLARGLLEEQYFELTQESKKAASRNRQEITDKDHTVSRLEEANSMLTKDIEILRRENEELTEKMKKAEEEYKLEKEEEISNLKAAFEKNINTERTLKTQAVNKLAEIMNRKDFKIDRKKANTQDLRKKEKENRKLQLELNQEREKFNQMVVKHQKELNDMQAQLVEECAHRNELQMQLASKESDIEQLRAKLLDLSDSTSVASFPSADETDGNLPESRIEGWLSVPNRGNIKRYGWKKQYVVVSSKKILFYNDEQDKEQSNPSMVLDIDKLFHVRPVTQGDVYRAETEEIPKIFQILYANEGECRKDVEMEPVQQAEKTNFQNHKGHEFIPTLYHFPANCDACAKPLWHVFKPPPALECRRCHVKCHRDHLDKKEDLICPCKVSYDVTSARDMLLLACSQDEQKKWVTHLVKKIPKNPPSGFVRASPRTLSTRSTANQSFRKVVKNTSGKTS

[1] = system: rabbit eyes with high intraocular pressure induced by magnetic beads; test: Model of magnetic bead induced high intraocular pressure rabbit (intraocular pressure >30 mmHg); type: in vivo, New Zealand white rabbit; conditions: for Maximum intraocular pressure difference (mmHg): experiment of Table 13
Description: Evaluation of the effect of reducing intraocular pressure in model of magnetic bead induced high intraocular pressure rabbit (high intraocular pressure model with intraocular pressure >30 mmHg)
Experimental animal: New Zealand white rabbit, male, body weight 2.0-3.0 kg. New Zealand white rabbits were purchased from Huijun Farm (Changhua, Taiwan) before the experiment and were raised in the Animal Center of National Chiao Tung University.
Experimental method: After weighing and grouping male New Zealand white rabbits, the New Zealand white rabbits were anesthetized with Zoletil 50 0.2 mL/kg. 50 μL of magnetic bead solution (50 mg/mL, magnetic bead size of 10 μm) was injected into the left and right anterior eye chambers of the rabbit under anesthesia to make rabbit eyes become a state of high intraocular pressure. After the injection to the anterior chamber of the eye, a strong […] iron magnet ring was immediately put around the eye for 10-20 minutes to make the magnetic beads completely block the drainage tissue of the aqueous humor. After disinfecting the eyeball with antibiotics, moisturizing eye ointment was provided to restore the eyeball, and the intraocular pressure rising was waited. […] The experiment was conducted for 2 consecutive days.

[2] = system: rabbit eyes with normal intraocular pressure; conditions: eye drop concentration
Protocol: The maximal effect (Emax) dose evaluation of the intraocular pressure reduction model in normal rabbit
Animals: Male New Zealand white rabbits (n=7/each group);
Administration: 50 μL of the test compound was instilled in the right eye (dosed eye) and 50 μL of the vehicle (without the test compound) in the left eye (control eye) of each experimental animal. The 3 formulation mentioned above were administered once a day for 3 consecutive days.
The intraocular pressure of each animal was measured by Tono-Vet (iCare) before administration (0 hours) and 2, 4, 6 and 8 hours after administration on Day 1 and Day 3.
The maximum magnitude of the reduction in intraocular pressure %=(Intraocular pressure of the control eye−Intraocular pressure of the dosed eye)/Intraocular pressure of the control eye*100
The data presented in this experiment is the data that has removed the unqualified data (white rabbits with an intraocular pressure difference ≥2 mmHg (n=1) in the two eyes on Day 1 and >5 mmHg in the two eyes before the administration on the Day 3 (n=1) have been removed) and removed the rebound high intraocular pressure (n=3).

[3] = system: rabbit eyes with normal intraocular pressure; test: Evaluation of the effect of decreasing intraocular pressure in a model of rabbit with normal intraocular pressure; type: in vivo, New Zealand white rabbit; conditions: for Intraocular pressure difference (mmHg): at time point of maximum effect
Protocol: Evaluation of the Effect of Decreasing Intraocular Pressure in a Model of Rabbit with Normal Intraocular Pressure
Experimental animal: New Zealand white rabbit, male, weighing more than 2 kg. New Zealand white rabbits were purchased from Huijun Farm (Changhua, Taiwan). After a one-week quarantine period, they were raised in MASTER LABORATORY Co., Ltd under the environmental conditions of 16-22° C., 30-70% relative humidity (RH), 8 hours day/16 hours night.
(1) Evaluation of the Effect of Reducing Intraocular Pressure
After weighing 12 New Zealand white rabbits (2.0-4.0 kg) and grouping them (n=3-6 in each group), the white rabbits were fixed with a wrap.

YSK4 = YSK4 (Homo sapiens (Human), UniProt Q56UN5); test: Assay for inhibitory effect on YSK-4, Z'-LYTE kinase assay; type: biochemical; conditions: ATP 5 μM
Chain of YSK4 (Q56UN5 whole entry): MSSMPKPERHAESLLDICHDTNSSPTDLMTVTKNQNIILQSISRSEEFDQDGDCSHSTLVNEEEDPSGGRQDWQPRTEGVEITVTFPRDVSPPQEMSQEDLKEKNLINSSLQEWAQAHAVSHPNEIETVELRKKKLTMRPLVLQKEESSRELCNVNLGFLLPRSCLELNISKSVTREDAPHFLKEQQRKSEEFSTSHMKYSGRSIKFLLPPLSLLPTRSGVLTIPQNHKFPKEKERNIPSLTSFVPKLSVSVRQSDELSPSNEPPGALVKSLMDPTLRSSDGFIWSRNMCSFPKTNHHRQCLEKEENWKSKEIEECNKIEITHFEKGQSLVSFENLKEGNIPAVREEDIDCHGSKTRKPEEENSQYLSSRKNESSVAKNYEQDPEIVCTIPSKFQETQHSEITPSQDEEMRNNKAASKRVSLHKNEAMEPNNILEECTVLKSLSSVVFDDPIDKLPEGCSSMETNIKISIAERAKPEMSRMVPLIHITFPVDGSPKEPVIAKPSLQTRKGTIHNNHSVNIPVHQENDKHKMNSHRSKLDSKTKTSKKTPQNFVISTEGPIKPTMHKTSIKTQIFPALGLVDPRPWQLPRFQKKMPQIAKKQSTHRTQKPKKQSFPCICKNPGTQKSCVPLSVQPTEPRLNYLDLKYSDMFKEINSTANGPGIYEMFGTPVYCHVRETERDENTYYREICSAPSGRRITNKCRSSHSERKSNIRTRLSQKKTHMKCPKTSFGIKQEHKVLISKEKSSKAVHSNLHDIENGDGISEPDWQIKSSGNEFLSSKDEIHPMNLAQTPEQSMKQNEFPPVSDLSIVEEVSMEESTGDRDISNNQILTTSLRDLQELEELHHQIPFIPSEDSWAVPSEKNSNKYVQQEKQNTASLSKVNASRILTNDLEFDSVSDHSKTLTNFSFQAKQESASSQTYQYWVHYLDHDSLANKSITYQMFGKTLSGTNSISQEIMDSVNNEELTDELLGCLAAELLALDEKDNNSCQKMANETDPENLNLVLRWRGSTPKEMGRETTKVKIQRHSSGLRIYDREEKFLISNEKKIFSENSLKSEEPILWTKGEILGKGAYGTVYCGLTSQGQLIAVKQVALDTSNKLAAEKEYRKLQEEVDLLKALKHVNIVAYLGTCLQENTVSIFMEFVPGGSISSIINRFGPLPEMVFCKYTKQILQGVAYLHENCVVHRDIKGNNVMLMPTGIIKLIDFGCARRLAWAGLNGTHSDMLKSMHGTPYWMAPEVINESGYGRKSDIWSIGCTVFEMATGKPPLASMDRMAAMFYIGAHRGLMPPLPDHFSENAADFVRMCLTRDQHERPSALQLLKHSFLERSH
Protocol: C. Assay for Inhibitory Effect on YSK-4
The experimental procedure referred to the Z′-LYTE Screening Protocol and Assay Conditions provided by ThermoFisher Scientific.
C-1. Material Preparation
Peptide/Kinase Mixture was pre-diluted with Kinase Buffer to 2× working concentration.
ATP solution was pre-diluted with Kinase Buffer (50 mM HEPES pH 7.5, 0.01% BRIJ-35, 10 mM MgCl2, 1 mM EGTA) to 4× working concentration.
The development reagent solution is Novel PKC Lipid Mix, which contains 2 mg/mL Phosphatidyl Serine, 0.2 mg/mL DAG in 20 mM HEPES, pH 7.4 and 0.3% CHAPS, and was pre-diluted 10 fold with development buffer.
1. 100 nL of the above diluted test compound and 2.4 μL of kinase buffer were added to a black 384-well plate (Corning, Cat. NO. 4514), then add 5 μL of the peptide/kinase mixture mentioned above was added thereto, and after that 2.5 μL of ATP solution was added thereto, and the culture plate was shaken for 30 seconds.
2. Next, the culture plate was placed at room temperature and incubated for 60 minutes.
3. After that 5 μL of the development reagent solution was added and the culture plate was shaken for 30 seconds in the dark, and then the data was read and analyzed with a fluorescence plate reader.
In addition, for the kinase, the following control group was prepared and placed on the same culture plate as the kinase:
(1) 0% Phosphorylation Control (100% Inhibition Control)
This control yields 100% cleaved peptide in the Development Reaction.
(2) 100% Phosphorylation Control
A synthetically phosphorylated peptide of the same sequence as the peptide substrate is used as the 100% Phosphorylation Control.
The Phosphorylation percent achieved in a specific reaction well (Experimental group) was calculated based on the 0% Phosphorylation Control and 100% Phosphorylation Control.

MYLK4 = MYLK4 (Homo sapiens (Human), UniProt Q86YV6); test: Assay for inhibitory effect on MYLK-4, LanthaScreen Eu Kinase Binding Assay
Chain of MYLK4 (Q86YV6 whole entry): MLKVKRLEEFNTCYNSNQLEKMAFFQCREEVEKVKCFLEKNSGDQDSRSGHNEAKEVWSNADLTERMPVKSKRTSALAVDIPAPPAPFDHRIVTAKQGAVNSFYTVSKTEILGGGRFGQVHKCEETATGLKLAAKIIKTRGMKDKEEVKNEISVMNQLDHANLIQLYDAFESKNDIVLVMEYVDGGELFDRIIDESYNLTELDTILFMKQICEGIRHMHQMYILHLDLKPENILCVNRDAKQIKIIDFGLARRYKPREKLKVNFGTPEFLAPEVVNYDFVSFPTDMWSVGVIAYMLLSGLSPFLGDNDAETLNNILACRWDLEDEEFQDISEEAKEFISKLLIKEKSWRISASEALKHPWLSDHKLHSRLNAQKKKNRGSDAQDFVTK

patients = conditions: cited from earlier work
[4] = system: rabbit eyes with high intraocular pressure induced by hypertonic saline; test: Model of hypertonic saline induced high intraocular pressure rabbit (acute high intraocular pressure model); type: in vivo, New Zealand white rabbit; design: AUC: unit not given beside the values
Description: Evaluation of the effect of reducing intraocular pressure in model of hypertonic saline induced high intraocular pressure rabbit (acute high intraocular pressure model)
Experimental animal: New Zealand white rabbit, male, weighing 2.0-3.0 kg. New Zealand white rabbits were purchased from a qualified laboratory animal rabbit farm in Taiwan before the experiment and were raised in the Animal Center of National Chiao Tung University.
Negative control 1: Physiological saline
Negative control 2: Vehicle without test substance (containing 5% mannitol, 20 mM boric acid and 0.125% nonoxynol-9)
Experimental method: male New Zealand white rabbits were weighed and grouped and then anesthetized. 160 μL of hypertonic saline (5% NaCl) was injected into the vitreous bodies of the left and right eyes of the rabbit under anesthesia, so that the rabbit eyes became a state of high intraocular pressure. […] The intraocular pressure (TOP) detection time points were before anesthesia (0 hours) and 0.5, 1, 1.5, 3, and 5 hours after administration.
Maximum intraocular pressure difference: The difference between an individual's TOP readings and the average TOP readings of the negative control group 1 (physiological saline) at the time point at which the maximum response is recorded (J Ocul Pharmacol Ther. 2010 April; 26(2): 125-132)

humans = conditions: phase III clinical trial; cited from earlier work
[5] = dose 0.02%, versus physiological saline group

Structure (SMILES) | IC50 (ROCK1) [nM] | maximum effect (Emax) dose in the normal intraocular pressure rabbit model [2] [%] | time point at which maximum effect is achieved ([3]; dose 1%) [h] | Intraocular pressure difference (mmHg) ([3]; dose 1%) | IC50 (YSK4) [nM] | IC50 (MYLK4) [nM] | other results
NCC(C(=O)Nc1ccc(-c2cn[nH]c2)cc1)c1ccccc1 (racemic) [Compound 7, N-(4-(1H-pyrazol-4-yl)phenyl)-3-amino-2-phenylpropanamide dihydrochloride] | 1 to 10 | 1 | 4 | 5.1 | > 1000 | 10 to 100 | OECD Score: Chemosis (rabbit eyes; Therapeutic index: 3): 0; OECD Score: Discharge (rabbit eyes; Therapeutic index: 3): 1; OECD Score: Redness (rabbit eyes; Therapeutic index: 3): 1; OECD Score: Total (rabbit eyes; Therapeutic index: 3): 2; Maximum intraocular pressure difference (mmHg) ([1]; dose 0.5%): 6.7 ± 1.6 mmHg; Maximum intraocular pressure difference (mmHg) ([1]; dose 1%): 11.8 ± 0.8 mmHg
Cc1ccc(C(=O)OCc2ccc([C@@H](CN)C(=O)Nc3ccc4cnccc4c3)cc2)c(C)c1 [AR-13324, Netarsudil, reference compound] |  |  | 6 | 4.5 |  | > 1000 | efficacy compared with Timolol (patients; patients <25 mmHg): comparable to Timolol; efficacy compared with Timolol (patients; patients with intraocular pressure >25 mmHg): not as effective as the conventional glaucoma treatment drug Timolol; OECD Score: Chemosis (rabbit eyes; Therapeutic index: 2): 1; OECD Score: Discharge (rabbit eyes; Therapeutic index: 2): 2; OECD Score: Redness (rabbit eyes; Therapeutic index: 2): 1; OECD Score: Total (rabbit eyes; Therapeutic index: 2): 4; Maximum intraocular pressure difference (mmHg) ([1]; dose 0.02%): 3.6 ± 2.1 mmHg; reduction of intraocular pressure in percent ([1]; eye drop containing 0.02%): about 11.0%; AUC ([4]; dose 0.02%, intraocular pressure over 0-5 hours): 132.9; Maximum intraocular pressure difference (%) [4, 5]: −20.8%; Maximum intraocular pressure difference (mm Hg) [4, 5]: −7.7 ± 4.2 mm Hg; difference compared with the physiological saline or the vehicle (t-test) ([4]; eye drop containing 0.02%): no statistically significant difference; reduction of the intraocular pressure ([4]; eye drop containing 0.02%): about 7.7±4.2 mmHg
NCC(C(=O)Nc1ccc(-c2cn[nH]c2)cc1)c1ccc(F)cc1 (centres unmarked) [Compound 8, N-(4-(1H-pyrazol-4-yl)phenyl)-3-amino-2-(4-fluorophenyl) propanamide dihydrochloride] | 1 to 10 | 1 | 6 | 5.2 | > 1000 | 10 to 100 | 
Cc1ccc(C(=O)OCc2ccc(C(CN)C(=O)Nc3ccc(-c4cn[nH]c4)cc3)cc2)c(C)c1 (centres unmarked) [Compound 12, 4-(1-((4-(1H-pyrazol-4-yl)phenyl)amino)-3-amino-1-oxopropan-2-yl) benzyl 2,4-dimethylbenzoate dihydrochloride] | 10 to 100 | 0.25 |  |  | > 1000 | 100 to 1000 | time point at which maximum effect is achieved ([3]; dose 0.25%): 6 h; Intraocular pressure difference (mmHg) ([3]; dose 0.25%): 2.0 mmHg
NCC(C(=S)Nc1ccc(-c2cn[nH]c2)cc1)c1ccccc1 (centres unmarked) [Compound 14, N-(4-(1H-pyrazol-4-yl)phenyl)-3-amino-2-phenylpropanethioamide dihydrochloride] | 1 to 10 | 0.5 |  |  | > 1000 | 100 to 1000 | time point at which maximum effect is achieved ([3]; dose 0.5%): 6 h; Intraocular pressure difference (mmHg) ([3]; dose 0.5%): 2.5 mmHg
N#C/N=C(/NCc1ccccc1)Nc1ccc(-c2cn[nH]c2)cc1 [Compound 16, 1-(4-(1H-pyrazol-4-yl)phenyl)-3-benzyl-2-cyanoguanidine hydrochloride] |  |  |  |  | > 10000 | > 10000 | IC50 (ROCK1; read-out: ROCK1 IC50): > 10000 nM
NCCN(Cc1ccc(F)cc1)C(=O)c1ccc(-c2cn[nH]c2)cc1 [Compound 17, N-(2-aminoethyl)-N-(4-fluorobenzyl)-4-(1H-pyrazol-4-yl)benzamide dihydrochloride] | 100 to 1000 |  |  |  | > 10000 | > 10000 | 
NCC(C(=O)Nc1ccc(-c2cn[nH]c2)cc1F)c1ccccc1 (centres unmarked) [Compound 19, 3-amino-N-(2-fluoro-4-(1H-pyrazol-4-yl)phenyl)-2-phenylpropanamide dihydrochloride] | 10 to 100 |  |  |  | > 1000 | 100 to 1000 | 
C[C@H]1CNCCCN1S(=O)(=O)c1cccc2cncc(F)c12 [Ripasudil] |  |  |  |  |  |  | incidence of mild conjunctival hyperemia (humans): up to 75%
